The subject of test [1] is Saccharomyces cerevisiae. Put plainly: Antifungal activity against Saccharomyces cerevisiae by two-fold serial dilution method. Type of test: functional.
The test system of test [2] is Candida albicans. As to the kind of experiment: Antifungal activity against Candida albicans NRRL Y-477 at 50 ug/ml after 24 hrs by agar well diffusion assay. Type of test: functional. Conditions: NRRL Y-477, 24 h, read-out: DIZ. For orientation: A growth-free zone around the sample is the usual read-out of agar diffusion tests.
Test [3] deals with Candida albicans. Put plainly: Antifungal activity against Candida albicans NRRL Y-477 by two-fold serial dilution method. Type of test: functional.
The test system of test [4] is Saccharomyces cerevisiae. As to the kind of experiment: Antifungal activity against Saccharomyces cerevisiae at 50 ug/ml after 24 hrs by agar well diffusion assay. Type of test: functional. The settings on record: read-out: DIZ.
Test [5] deals with Escherichia coli. As to the kind of experiment: Antimicrobial activity against Escherichia coli ATCC 25922 after 24 hrs by two-fold serial dilution method. Type of test: functional. Conditions: ATCC 25922, 24 h.
For test [6], the system named is Bacillus subtilis. As to the kind of experiment: Antimicrobial activity against Bacillus subtilis ATCC 6633 after 24 hrs by two-fold serial dilution method. The settings on record: ATCC 6633, 24 h. Type of test: functional.
The subject of test [7] is Pseudomonas aeruginosa. Put plainly: Antimicrobial activity against Pseudomonas aeruginosa ATCC 27953 at 100 ug/ml after 24 hrs by agar well diffusion assay. Type of test: functional. Conditions: ATCC 27953, 24 h, read-out: DIZ.
In test [8] the test system is Bacillus subtilis. As to the kind of experiment: Antimicrobial activity against Bacillus subtilis ATCC 6633 at 100 ug/ml after 24 hrs by agar well diffusion assay. Type of test: functional. Conditions: ATCC 6633, 24 h, read-out: DIZ.
Test [9] relates to Staphylococcus aureus. As to the kind of experiment: Antimicrobial activity against Staphylococcus aureus ATCC 29213 at 100 ug/ml after 24 hrs by agar well diffusion assay. Type of test: functional. The settings on record: ATCC 29213, 24 h, read-out: DIZ.
The subject of test [10] is Priestia megaterium. Put plainly: Antimicrobial activity against Bacillus megaterium ATCC 9885 after 24 hrs by two-fold serial dilution method. Type of test: functional. The settings on record: ATCC 9885, 24 h.
Test [11] concerns Pseudomonas aeruginosa. Put plainly: Antimicrobial activity against Pseudomonas aeruginosa ATCC 27953 after 24 hrs by two-fold serial dilution method. Type of test: functional. The settings on record: ATCC 27953, 24 h.
Test [12] has as its system Candida albicans. Put plainly: Antifungal activity against Candida albicans NRRL Y-477 at 100 ug/ml after 24 hrs by agar well diffusion assay. Conditions: NRRL Y-477, 24 h, read-out: DIZ. Type of test: functional.
In test [13] the test system is Klebsiella pneumoniae. Put plainly: Antimicrobial activity against Klebsiella pneumoniae ATCC 13883 at 100 ug/ml after 24 hrs by agar well diffusion assay. The settings on record: ATCC 13883, 24 h, read-out: DIZ. Type of test: functional.
Test [14] deals with Priestia megaterium. As to the kind of experiment: Antimicrobial activity against Bacillus megaterium ATCC 9885 at 100 ug/ml after 24 hrs by agar well diffusion assay. Type of test: functional. Conditions: ATCC 9885, 24 h, read-out: DIZ.
Test [15] relates to Klebsiella pneumoniae. Put plainly: Antimicrobial activity against Klebsiella pneumoniae ATCC 13883 after 24 hrs by two-fold serial dilution method. Type of test: functional. Conditions: ATCC 13883, 24 h.
For test [16], the system named is Micrococcus luteus. As to the kind of experiment: Antimicrobial activity against Sarcina lutea at 100 ug/ml after 24 hrs by agar well diffusion assay. Type of test: functional. Conditions: read-out: DIZ.
Test [17] deals with Saccharomyces cerevisiae. As to the kind of experiment: Antifungal activity against Saccharomyces cerevisiae at 100 ug/ml after 24 hrs by agar well diffusion assay. Type of test: functional. Conditions: read-out: DIZ.
Test [18] concerns Escherichia coli. Put plainly: Antimicrobial activity against Escherichia coli ATCC 25922 at 100 ug/ml after 24 hrs by agar well diffusion assay. Type of test: functional. The settings on record: ATCC 25922, 24 h, read-out: DIZ.
Test [19] concerns Micrococcus luteus. As to the kind of experiment: Antimicrobial activity against Sarcina lutea after 24 hrs by two-fold serial dilution method. Type of test: functional.
Test [20] concerns Staphylococcus aureus. Put plainly: Antimicrobial activity against Staphylococcus aureus ATCC 29213 after 24 hrs by two-fold serial dilution method. Type of test: functional. Conditions: ATCC 29213, 24 h.
Test [21] relates to Priestia megaterium. As to the kind of experiment: Antimicrobial activity against Bacillus megaterium ATCC 9885 at 50 ug/ml after 24 hrs by agar well diffusion assay. Type of test: functional. The settings on record: ATCC 9885, 24 h, read-out: DIZ.
Test [22] has as its system Staphylococcus aureus. Put plainly: microbe, parasite or virus in culture. Conditions: ATCC 29213, 24 h, read-out: DIZ.
Description: Antimicrobial activity against Staphylococcus aureus ATCC 29213 at 50 ug/ml after 24 hrs by agar well diffusion assay
Test [23] has as its system Bacillus subtilis. Put plainly: microbe, parasite or virus in culture. The settings on record: ATCC 6633, 24 h, read-out: DIZ.
Description: Antimicrobial activity against Bacillus subtilis ATCC 6633 at 50 ug/ml after 24 hrs by agar well diffusion assay
Test [24] deals with Micrococcus luteus. As to the kind of experiment: Antimicrobial activity against Sarcina lutea at 50 ug/ml after 24 hrs by agar well diffusion assay. Type of test: functional. Conditions: read-out: DIZ.
Test [25] relates to Pseudomonas aeruginosa. Put plainly: microbe, parasite or virus in culture. Conditions: ATCC 27953, 24 h, read-out: DIZ.
Description: Antimicrobial activity against Pseudomonas aeruginosa ATCC 27953 at 50 ug/ml after 24 hrs by agar well diffusion assay
The subject of test [26] is Klebsiella pneumoniae. As to the kind of experiment: microbe, parasite or virus in culture. Conditions: ATCC 13883, 24 h, read-out: DIZ.
Description: Antimicrobial activity against Klebsiella pneumoniae ATCC 13883 at 50 ug/ml after 24 hrs by agar well diffusion assay

≈ marks a conversion by molar mass, not a printed value.

As to `CC(=O)N1CCN(c2ccc(OCC3COC(Cn4ccnc4)(c4ccc(Cl)cc4Cl)O3)cc2)CC1` (centres undefined) [KETOCONAZOLE], the MIC in the test with Saccharomyces cerevisiae [1] and in the test with Candida albicans [3] was 8.25 µg/mL (≈ 15.5 µM) throughout. Besides, the zone of inhibition at 50 µg/mL stood at 22 mm in the test with Candida albicans [2] and 23 mm with Saccharomyces cerevisiae [4].
On to `Cc1ccc(-n2nnc(C3=NN(c4nc(-c5ccccc5)cs4)C(c4ccc(F)cc4)C3)c2C)cc1` (centres undefined), for which the MIC in the test on Escherichia coli [5] was 132 µg/mL (≈ 267 µM); with Bacillus subtilis [6], 33 µg/mL (≈ 66.7 µM); against Priestia megaterium [10] it was 33 µg/mL (≈ 66.7 µM); against Pseudomonas aeruginosa [11], 8.25 µg/mL (≈ 16.7 µM); with Saccharomyces cerevisiae [1] it was 33 µg/mL (≈ 66.7 µM); in the test with Candida albicans [3] it was 66 µg/mL (≈ 133 µM). Moreover, the MIC is 33 µg/mL (≈ 66.7 µM) against Klebsiella pneumoniae [15], 66 µg/mL (≈ 133 µM) against Micrococcus luteus [19] and 16.5 µg/mL (≈ 33.4 µM) in the test on Staphylococcus aureus [20]. Moreover, the zone of inhibition at 100 µg/mL is 28 mm in the test with Pseudomonas aeruginosa [7]; 24 mm in the test on Bacillus subtilis [8]; 26 mm in the test with Staphylococcus aureus [9]; 20 mm in the test on Candida albicans [12]; 26 mm with Klebsiella pneumoniae [13]; 24 mm in the test on Priestia megaterium [14]. For the same compound, the zone of inhibition at 100 µg/mL with Micrococcus luteus [16] stood at 22 mm; in the test on Saccharomyces cerevisiae [17] it was 22 mm; in the test with Escherichia coli [18], 16 mm.
Regarding `Cc1ccc(-n2nnc(C3=NNC(c4ccc(F)cc4)C3)c2C)cc1` (centres undefined), the MIC in the test on Escherichia coli [5] was determined as 132 µg/mL (≈ 394 µM); against Priestia megaterium [10], 132 µg/mL (≈ 394 µM); against Pseudomonas aeruginosa [11] it was 8.25 µg/mL (≈ 24.6 µM); with Saccharomyces cerevisiae [1] it was 66 µg/mL (≈ 197 µM); in the test on Candida albicans [3], 132 µg/mL (≈ 394 µM); in the test with Klebsiella pneumoniae [15], 132 µg/mL (≈ 394 µM). In addition, the MIC in the test on Micrococcus luteus [19] stood at 66 µg/mL (≈ 197 µM); in the test on Staphylococcus aureus [20] it was 33 µg/mL (≈ 98.4 µM). Also, the zone of inhibition at 100 µg/mL in the test on Pseudomonas aeruginosa [7] was found to be 30 mm; in the test on Staphylococcus aureus [9], 20 mm; in the test on Candida albicans [12], 16 mm; in the test with Klebsiella pneumoniae [13] it was 16 mm; in the test with Priestia megaterium [14], 16 mm; in the test on Micrococcus luteus [16], 18 mm. Also, the results for the zone of inhibition at 100 µg/mL in the test on Saccharomyces cerevisiae [17] and in the test on Escherichia coli [18] were 18 mm and 16 mm, respectively.
As for `Cc1ccc(-n2nnc(C3=NN(c4nc(-c5ccc(Br)cc5)cs4)C(c4ccc(F)cc4)C3)c2C)cc1` (centres undefined), the MIC with Escherichia coli [5] came to 16.5 µg/mL (≈ 28.8 µM); with Bacillus subtilis [6], 33 µg/mL (≈ 57.5 µM); against Priestia megaterium [10], 33 µg/mL (≈ 57.5 µM); against Saccharomyces cerevisiae [1] it was 8.25 µg/mL (≈ 14.4 µM); in the test with Candida albicans [3], 8.25 µg/mL (≈ 14.4 µM); against Klebsiella pneumoniae [15] it was 16.5 µg/mL (≈ 28.8 µM). Further, the minimum inhibitory concentration (MIC) came to 66 µg/mL (≈ 115 µM) against Micrococcus luteus [19] and 8.25 µg/mL (≈ 14.4 µM) in the test on Staphylococcus aureus [20]. Moreover, the zone of inhibition at 100 µg/mL in the test on Bacillus subtilis [8] was found to be 26 mm; in the test with Staphylococcus aureus [9] it was 30 mm; in the test with Candida albicans [12], 30 mm; with Klebsiella pneumoniae [13], 24 mm; in the test with Priestia megaterium [14], 22 mm; with Micrococcus luteus [16], 22 mm. The zone of inhibition at 100 µg/mL was determined as 30 mm with Saccharomyces cerevisiae [17] and 22 mm with Escherichia coli [18].
In the case of `Cc1ccc(-n2nnc(C3=NNC(c4ccc(C#N)cc4)C3)c2C)cc1` (centres undefined), the minimal inhibitory concentration (MIC) worked out at 8.25 µg/mL (≈ 24.1 µM) in the test with Escherichia coli [5]; 33 µg/mL (≈ 96.4 µM) against Bacillus subtilis [6]; 33 µg/mL (≈ 96.4 µM) against Priestia megaterium [10]; 8.25 µg/mL (≈ 24.1 µM) in the test on Pseudomonas aeruginosa [11]; 8.25 µg/mL (≈ 24.1 µM) against Saccharomyces cerevisiae [1]; 8.25 µg/mL (≈ 24.1 µM) in the test on Candida albicans [3]. The MIC against Klebsiella pneumoniae [15] and against Micrococcus luteus [19] was 8.25 µg/mL (≈ 24.1 µM) in each case. Also, the zone of inhibition at 100 µg/mL in the test with Pseudomonas aeruginosa [7] came out at 28 mm; in the test with Bacillus subtilis [8] it was 26 mm; in the test with Candida albicans [12], 28 mm; with Klebsiella pneumoniae [13], 30 mm; with Priestia megaterium [14] it was 24 mm; in the test on Micrococcus luteus [16] it was 28 mm. Moreover, the zone of inhibition at 100 µg/mL in the test with Saccharomyces cerevisiae [17] and with Escherichia coli [18] was 30 mm throughout.
For `Cc1ccc(-n2nnc(C3=NN(c4nc(-c5ccc(Cl)cc5)cs4)C(c4ccc(F)cc4)C3)c2C)cc1` (centres undefined), the minimum inhibitory concentration (MIC) with Escherichia coli [5] stood at 33 µg/mL (≈ 62.4 µM); in the test with Bacillus subtilis [6], 8.25 µg/mL (≈ 15.6 µM); against Pseudomonas aeruginosa [11], 16.5 µg/mL (≈ 31.2 µM); with Saccharomyces cerevisiae [1], 16.5 µg/mL (≈ 31.2 µM); in the test with Candida albicans [3], 16.5 µg/mL (≈ 31.2 µM); with Klebsiella pneumoniae [15], 16.5 µg/mL (≈ 31.2 µM). Also, the figures for the MIC against Micrococcus luteus [19] and in the test with Staphylococcus aureus [20] were 66 µg/mL (≈ 125 µM) and 8.25 µg/mL (≈ 15.6 µM), respectively. The zone of inhibition at 100 µg/mL worked out at 24 mm in the test with Pseudomonas aeruginosa [7]; 30 mm in the test with Bacillus subtilis [8]; 28 mm with Staphylococcus aureus [9]; 25 mm in the test with Candida albicans [12]; 28 mm in the test on Klebsiella pneumoniae [13]; 22 mm in the test on Micrococcus luteus [16]. Also, the zone of inhibition at 100 µg/mL in the test on Saccharomyces cerevisiae [17] came out at 28 mm; in the test on Escherichia coli [18], 29 mm.
For `O=C(O)c1cn(C2CC2)c2cc(N3CCNCC3)c(F)cc2c1=O` [CIPROFLOXACIN], the minimum inhibitory concentration (MIC) in the test on Escherichia coli [5] is 16.5 µg/mL (≈ 49.8 µM); in the test on Bacillus subtilis [6], 8.25 µg/mL (≈ 24.9 µM); with Priestia megaterium [10], 8.25 µg/mL (≈ 24.9 µM); in the test on Pseudomonas aeruginosa [11] it was 16.5 µg/mL (≈ 49.8 µM); against Klebsiella pneumoniae [15] it was 16.5 µg/mL (≈ 49.8 µM); in the test on Micrococcus luteus [19] it was 16.5 µg/mL (≈ 49.8 µM). In the test with Staphylococcus aureus [20], the MIC turned out to be 8.25 µg/mL (≈ 24.9 µM). Besides, the zone of inhibition at 50 µg/mL in the test on Priestia megaterium [21] was determined as 24 mm; in the test with Staphylococcus aureus [22], 20 mm; in the test on Bacillus subtilis [23], 22 mm; with Micrococcus luteus [24], 20 mm; in the test with Pseudomonas aeruginosa [25], 24 mm; with Klebsiella pneumoniae [26], 25 mm.

The MIC is the smallest concentration in the dilution series that meets the test's criterion for growth inhibition. Lower therefore signals a more susceptible organism.

The record behind these values is ChEMBL document CHEMBL2021863, “Design and synthesis of new 4-pyrazolin-3-yl-1,2,3-triazoles and 1,2,3-triazol-4-yl-pyrazolin-1-ylthiazoles as potential antimicrobial agents” (2012).
